# EPA's ToxRefDB 2
# Tests used:
# [1] = tested on: rat; conditions: Carcinogenicity; fischer; Oral; Feed; dose end: 2 year; group: systemic; systemic / in life observation / body weight / body weight
# [2] = tested on: rat; conditions: Developmental neurotoxicity study; sprague dawley; Injection; Subcutaneous; dose end: 345 PND; group: cannot be grouped; systemic / in life observation / body weight / offspring (pup) weight + systemic / in life observation / clinical signs / abnormal movements…
# [3] = tested on: primate; conditions: Sub-acute repeat dose toxicity; Oral; Gavage/Intubation; dose end: 21 day; group: systemic; systemic / in life observation / clinical signs / inappetence + systemic / in life observation / clinical signs / abnormal feces + systemic…
# [4] = tested on: primate; conditions: Sub-acute repeat dose toxicity; Oral; Gavage/Intubation; dose end: 30 day; group: systemic; systemic / clinical chemistry / protein / protein + systemic / hematology / erythrocyte (rbc) count differential / erythrocyte (rbc) + …
# [5] = tested on: rat; conditions: Sub-acute repeat dose toxicity, sprague dawley, Oral, Gavage/Intubation, dose end: 14 day, group: systemic
# [6] = tested on: rat; conditions: Sub-acute repeat dose toxicity, sprague dawley, Oral, Gavage/Intubation, dose end: 28 day, group: systemic
# [7] = tested on: primate; conditions: Sub-acute repeat dose toxicity; Oral; Gavage/Intubation; dose end: 19 day; group: systemic; systemic / clinical chemistry / creatinine / creatinine + systemic / clinical chemistry / urea nitrogen / urea nitrogen + systemic / …
# [8] = tested on: rat; conditions: Fertility (Segment I), sprague dawley, Oral, Gavage/Intubation, dose end: 7 GD
# [9] = tested on: rat; conditions: Sub-acute repeat dose toxicity, other, Oral, Gavage/Intubation, dose end: 29 day, group: systemic
# [10] = tested on: rat; conditions: Fertility (Segment I), sprague dawley, Oral, Gavage/Intubation, dose end: 14 GD
# [11] = tested on: rabbit; conditions: Prenatal developmental toxicity study, other, Oral, Gavage/Intubation, dose end: 18 GD
# [12] = tested on: dog; conditions: Chronic toxicity, beagle, Oral, Gavage/Intubation, dose end: 6 month, group: systemic
# [13] = tested on: rat; conditions: Prenatal developmental toxicity study, Sprague Dawley OFA, Oral, Gavage/Intubation, dose end: 17 GD, group: maternal
# [14] = tested on: rat; conditions: Prenatal developmental toxicity study, sprague dawley, Oral, Gavage/Intubation, dose end: 17 GD, group: maternal
# [15] = tested on: rat; conditions: Chronic toxicity; sprague dawley; Oral; Gavage/Intubation; dose end: 6 month; group: systemic; systemic / clinical chemistry / estradiol / estradiol + systemic / clinical chemistry / prolactin / prolactin + systemic / clinical …
# [16] = tested on: mouse; conditions: Subchronic oral toxicity in rodents, cd1, Gavage/Intubation, dose end: 13 weeks, group: systemic, systemic / in life observation / body weight / body weight + systemic / in life observation / body weight / body weight gain + systemic / in…
# [17] = tested on: dog; conditions: Chronic toxicity, beagle, Oral, Gavage/Intubation, dose end: 12 month, group: systemic
# [18] = tested on: dog; conditions: Sub-acute repeat dose toxicity, beagle, Oral, Gavage/Intubation, dose end: 4 week, group: systemic
# [19] = tested on: rat; conditions: Sub-acute repeat dose toxicity, sprague dawley, Oral, Gavage/Intubation, dose end: 1 month, group: systemic
# [20] = tested on: rat; conditions: Fertility (Segment I), sprague dawley, Oral, Gavage/Intubation, dose end: 7 GD; remark: listed apart in the source
# [21] = tested on: rat; conditions: Prenatal developmental toxicity study; sprague dawley; Oral; Gavage/Intubation; dose end: 7 GD; group: maternal; reproductive / reproductive performance / estrous cycle / corpora lutea + reproductive / reproductive performance / postimplantation loss / …
# [22] = tested on: rat; conditions: Sub-acute repeat dose toxicity, sprague dawley, Oral, Gavage/Intubation, dose end: 28 day, group: systemic; remark: listed apart in the source
# [23] = systemic / clinical chemistry / calcium / calcium + systemic / clinical chemistry / protein / protein + systemic / hematology / erythrocyte…
# [24] = systemic / hematology / erythrocyte (rbc) count differential / erythrocyte (rbc) + systemic / hematology / hematocrit (hct) / hematocrit (…
# [25] = systemic / pathology gross / full gross necropsy / ulcer
# [26] = systemic / pathology gross / full gross necropsy / ulcer + systemic / clinical chemistry / protein / protein + systemic / hematology / …
# [27] = group: maternal, reproductive / reproductive performance / fertility / fertility + reproductive / reproductive performance / implantations / implantations + …
# [28] = group: parental, systemic / in life observation / clinical signs / drooping eyelids (ptosis) + systemic / pathology gross / vagina / dilatation
# [29] = systemic / hematology / platelet / platelet + systemic / in life observation / body weight / body weight + systemic / in life observation / …
# [30] = systemic / in life observation / clinical signs / drooping eyelids (ptosis) + systemic / in life observation / clinical signs / lacrimation …
# [31] = group: maternal, reproductive / reproductive performance / fertility / fertility
# [32] = group: parental, systemic / in life observation / body weight / body weight gain + systemic / in life observation / clinical signs / [other] + systemic / in …
# [33] = group: developmental, systemic / in life observation / body weight / fetal weight
# [34] = group: maternal, systemic / in life observation / body weight / body weight gain + systemic / in life observation / food consumption / food consumption + …
# [35] = systemic / clinical chemistry / albumin / albumin + systemic / clinical chemistry / albumin-globulin ratio / albumin-globulin ratio + …
# [36] = systemic / in life observation / clinical signs / [other] + systemic / in life observation / clinical signs / defecation (diarrhea) + …
# [37] = systemic / in life observation / body weight / body weight + systemic / in life observation / clinical signs / drooping eyelids (ptosis)
# [38] = systemic / in life observation / clinical signs / drooping eyelids (ptosis)
# [39] = systemic / in life observation / body weight / body weight gain + systemic / in life observation / clinical signs / drooping eyelids (ptosis…
# [40] = systemic / clinical chemistry / bilirubin / total bilirubin + systemic / hematology / platelet / platelet + systemic / in life observation…
# [41] = systemic / clinical chemistry / bilirubin / total bilirubin + systemic / in life observation / clinical signs / [other] + systemic / in life…
# [42] = systemic / in life observation / clinical signs / pulse/pressure + systemic / urinalysis / protein / protein
# [43] = systemic / in life observation / clinical signs / pulse/pressure + systemic / urinalysis / protein / protein + systemic / in life …
# [44] = systemic / clinical chemistry / triglycerides / triglycerides + systemic / in life observation / body weight / body weight gain + systemic…
# [45] = systemic / pathology gross / vagina / dilatation + systemic / pathology gross / skin / [other]
# [46] = group: maternal, reproductive / reproductive performance / estrous cycle / abnormal + reproductive / reproductive performance / estrous cycle / length
# [47] = group: maternal, reproductive / reproductive performance / estrous cycle / abnormal + reproductive / reproductive performance / estrous cycle / length + …
# [48] = group: parental, systemic / in life observation / body weight / body weight gain + systemic / in life observation / clinical signs / drooping eyelids (ptosis…
# [49] = systemic / organ weight / heart / nos + systemic / organ weight / thymus / nos + systemic / pathology microscopic / ovary / follicle count
smiles,measurement,setting,value
Cc1ccc2ncccc2c1 [6-Methylquinoline],LEL,[1],25 mg/kg/day
same,LOAEL,[1],> 25 mg/kg/day
same,NEL,[1],< 25 mg/kg/day
same,NOAEL,[1],≥ 25 mg/kg/day
C[C@@H]1C[C@H]2[C@@H]3CCC4=CC(=O)C=C[C@]4(C)[C@@]3(F)[C@@H](O)C[C@]2(C)[C@@]1(O)C(=O)CO [Dexamethasone],LEL,[2],3 mg/kg/day
same,LOAEL,[2],> 3 mg/kg/day
same,NEL,[2],< 3 mg/kg/day
same,NOAEL,[2],≥ 3 mg/kg/day
NC(=O)n1c(O)c(C(=O)c2cc(Cl)cs2)c2cc(Cl)ccc21,LEL,[3],3 mg/kg/day
same,LOAEL,[3],> 3 mg/kg/day
same,NEL,[3],< 3 mg/kg/day
same,NOAEL,[3],≥ 3 mg/kg/day
same,LEL,[4],2 mg/kg/day
same,LOAEL,[4],> 6 mg/kg/day
same,NEL,[4],< 2 mg/kg/day
same,NOAEL,[4],≥ 6 mg/kg/day
same,LOAEL,[5]; [23],> 100 mg/kg/day
same,NOAEL,[5]; [23],≥ 100 mg/kg/day
same,LEL,[5]; [24],3 mg/kg/day
same,NEL,[5]; [24],< 3 mg/kg/day
same,LEL,[6]; [25],2 mg/kg/day
same,NEL,[6]; [25],< 2 mg/kg/day
same,LOAEL,[6]; [26],> 8 mg/kg/day
same,NOAEL,[6]; [26],≥ 8 mg/kg/day
same,LEL,[7],8 mg/kg/day
same,LOAEL,[7],> 8 mg/kg/day
same,NEL,[7],< 8 mg/kg/day
same,NOAEL,[7],≥ 8 mg/kg/day
NC(=O)Cn1c(=O)cc(CCN2CCN(c3nccc4sccc34)CC2)c2ccc(F)cc21 [Trelanserin],LEL,[8]; [27],80 mg/kg/day
same,LOAEL,[8]; [27],> 80 mg/kg/day
same,NEL,[8]; [27],< 80 mg/kg/day
same,NOAEL,[8]; [27],≥ 80 mg/kg/day
same,LEL,[8]; [28],80 mg/kg/day
same,LOAEL,[8]; [28],> 80 mg/kg/day
same,NEL,[8]; [28],< 80 mg/kg/day
same,NOAEL,[8]; [28],≥ 80 mg/kg/day
same,LOAEL,[9]; [29],> 100 mg/kg/day
same,NOAEL,[9]; [29],≥ 100 mg/kg/day
same,LEL,[9]; [30],4 mg/kg/day
same,NEL,[9]; [30],< 4 mg/kg/day
same,LEL,[10]; [31],150 mg/kg/day
same,LOAEL,[10]; [31],> 150 mg/kg/day
same,NEL,[10]; [31],20 mg/kg/day
same,NOAEL,[10]; [31],≥ 150 mg/kg/day
same,LOAEL,[10]; [32],> 150 mg/kg/day
same,NEL,[10]; [32],4 mg/kg/day
same,NOAEL,[10]; [32],≥ 150 mg/kg/day
same,LEL,"[10]; group: parental, systemic / in life observation / clinical signs / [other] + systemic / in life observation / clinical signs / drooping eyelids (ptosis) + …",20 mg/kg/day
same,LEL,[11]; [33],10 mg/kg/day
same,LOAEL,[11]; [33],> 30 mg/kg/day
same,NEL,[11]; [33],5 mg/kg/day
same,NOAEL,[11]; [33],≥ 30 mg/kg/day
same,LEL,"[11]; group: maternal, reproductive / reproductive performance / postimplantation loss / postimplantation loss",5 mg/kg/day
same,NEL,"[11]; group: maternal, reproductive / reproductive performance / postimplantation loss / postimplantation loss + systemic / in life observation / body weight / …",2 mg/kg/day
same,LOAEL,[11]; [34],> 30 mg/kg/day
same,NOAEL,[11]; [34],≥ 30 mg/kg/day
same,LOAEL,[12]; [35],> 100 mg/kg/day
same,NOAEL,[12]; [35],≥ 100 mg/kg/day
same,LEL,[12]; [36],4 mg/kg/day
same,NEL,[12]; [36],< 4 mg/kg/day
same,LOAEL,[13]; [37],> 20 mg/kg/day
same,NOAEL,[13]; [37],≥ 20 mg/kg/day
same,LEL,[13]; [38],5 mg/kg/day
same,NEL,[13]; [38],< 5 mg/kg/day
same,LOAEL,[14]; [39],> 20 mg/kg/day
same,NEL,[14]; [39],1 mg/kg/day
same,NOAEL,[14]; [39],≥ 20 mg/kg/day
same,LEL,[14]; systemic / in life observation / clinical signs / drooping eyelids (ptosis) + systemic / in life observation / clinical signs / red or …,5 mg/kg/day
same,LEL,[15],4 mg/kg/day
same,LOAEL,[15],20 mg/kg/day
same,NEL,[15],< 4 mg/kg/day
same,NOAEL,[15],4 mg/kg/day
same,LEL,[16],62.5 mg/kg/day
same,LOAEL,[16],250 mg/kg/day
same,NEL,[16],< 62.5 mg/kg/day
same,NOAEL,[16],125 mg/kg/day
same,LOAEL,[17]; [40],> 80 mg/kg/day
same,NOAEL,[17]; [40],≥ 80 mg/kg/day
same,LEL,[17]; [41],2 mg/kg/day
same,NEL,[17]; [41],< 2 mg/kg/day
same,LEL,[18]; [42],1 mg/kg/day
same,NEL,[18]; [42],< 1 mg/kg/day
same,LOAEL,[18]; [43],> 16 mg/kg/day
same,NOAEL,[18]; [43],≥ 16 mg/kg/day
same,LOAEL,[19]; [44],20 mg/kg/day
same,NOAEL,[19]; [44],2 mg/kg/day
same,LEL,[19]; [45],2 mg/kg/day
same,NEL,[19]; [45],< 2 mg/kg/day
same,LEL,[20]; [46],4 mg/kg/day
same,NEL,[20]; [46],< 4 mg/kg/day
same,LOAEL,[20]; [47],> 20 mg/kg/day
same,NOAEL,[20]; [47],≥ 20 mg/kg/day
same,LEL,[20]; [48],10 mg/kg/day
same,LOAEL,[20]; [48],> 20 mg/kg/day
same,NEL,[20]; [48],4 mg/kg/day
same,NOAEL,[20]; [48],≥ 20 mg/kg/day
CS(=O)(=O)OCCCCOS(C)(=O)=O [Busulfan],LEL,[21],1.5 mg/kg/day
same,LOAEL,[21],> 1.5 mg/kg/day
same,NEL,[21],0.5 mg/kg/day
same,NOAEL,[21],≥ 1.5 mg/kg/day
same,LOAEL,[22]; [49],> 1.5 mg/kg/day
same,NEL,[22]; [49],0.1 mg/kg/day
same,NOAEL,[22]; [49],≥ 1.5 mg/kg/day
same,LEL,[22]; systemic / pathology microscopic / ovary / follicle count,0.5 mg/kg/day
